Publication PMC11480361, “Design of a Cereblon construct for crystallographic and biophysical studies of protein degraders” (Nature Communications, 2024)
Where “and” joins values, the source holds several entries; their conditions need not be identical. Equal values may be shown once.

Assays:
[1] = biological target: T1, CRBN^midi (Homo sapiens, UniProt Q96SW2, C287N/C343E/C78I/DEL188-248/G302D/I92V/INS187GSG/K116N/L342R/L423I/Q134E/R283W/T359I/V293S); experiment: SEC-SAXS of CRBN^midi with binders (radius of gyration); conditions: for RG of ligand-bound CRBN^midi: 200 µM ligand, apo 26.73 Å; for Rg, P(r) Analysis from AUTOGNOM / dmax, P(r) analysis / Rg, Guinier analysis: Supplementary Table 3; for Rg, P(r) Analysis from AUTOGNOM: apo 26.91 ± 0.04; for dmax, P(r) analysis: apo 172.46; for Rg, Guinier analysis: binder 400 µM (mezigdomide, lenalidomide) or 200 µM (Boc-VcN, Boc-AcQ), apo 26.73 ± 0.06; as to Rg, Guinier analysis: values in Å; as to Rg, P(r) Analysis from AUTOGNOM: values in Å; as to dmax, P(r) analysis: values in Å
T1 construct: amino acids 41-187 followed by a Gly-Ser-Gly linker and amino acids 249-426; His6 (N, cleaved yes); made in house; host or cells: E. coli BL21(DE3)
Protocol: Frames from SEC-SAXS that corresponded to the main protein peak, were merged using Chromixs[61] and analyzed using the ATSAS (version 3.2.1) package. Radii of gyration and molecular mass were extrapolated from the Guinier plot using Primus. Pairwise-distance distributions were calculated using GNOM[63]. The dimensionless Kratky plot[49] was obtained by manually plotting (qRg)^2I(q)/I0 against qRg.
The open conformation model was obtained by homology modelling using the SWISS-MODEL webserver (accessed April 18th 2023)[65] with the cryo-EM structure of apo-CRBN (PDB ID: 8CVP)[25] as the input structure.

[2] = biological target: T1, CRBN^midi; experiment: Thermal denaturation (turbidity, Prometheus Panta) of CRBN^midi +/- binders, Fig. 2f; type: binding; design: First derivative: unit not given here; conditions: for increase of Tm / denaturation temperature of CRBN^midi / melting temperature (Tm) of CRBN^midi in presence of binder: 100 µM binder; for increase of Tm / denaturation temperature of CRBN^midi: versus apo; for melting temperature (Tm) of CRBN^midi in presence of binder: apo Tm 44.5 °C; for First derivative: thermal denaturation trace
Protocol: Protein aggregation was assessed, and turbidity values were calculated by the PR.Panta control software (NanoTemper Technologies). First derivative curves were plotted using Prism software (GraphPad version 10).

[3] = T[°C] 86.7721 lenalidomide, 86.7698 Boc-VcN, 86.7691 Boc-AcQ
[4] = T[°C] 86.8918 lenalidomide, 86.8895 Boc-VcN, 86.8888 Boc-AcQ
[5] = T[°C] 87.0114 lenalidomide, 87.0091 Boc-VcN, 87.0084 Boc-AcQ
[6] = T[°C] 87.1311 lenalidomide, 87.1288 Boc-VcN, 87.1281 Boc-AcQ
[7] = T[°C] 87.2507 lenalidomide, 87.2484 Boc-VcN, 87.2477 Boc-AcQ
[8] = T[°C] 87.3704 lenalidomide, 87.3681 Boc-VcN, 87.3674 Boc-AcQ
[9] = T[°C] 87.49 lenalidomide, 87.4877 Boc-VcN, 87.487 Boc-AcQ
[10] = T[°C] 87.6097 lenalidomide, 87.6074 Boc-VcN, 87.6067 Boc-AcQ
[11] = T[°C] 87.7294 lenalidomide, 87.727 Boc-VcN, 87.7263 Boc-AcQ
[12] = T[°C] 87.849 lenalidomide, 87.8467 Boc-VcN, 87.846 Boc-AcQ
[13] = T[°C] 87.9687 lenalidomide, 87.9664 Boc-VcN, 87.9656 Boc-AcQ
[14] = T[°C] 88.0883 lenalidomide, 88.086 Boc-VcN, 88.0853 Boc-AcQ
[15] = T[°C] 88.208 lenalidomide, 88.2057 Boc-VcN, 88.205 Boc-AcQ
[16] = T[°C] 88.3276 lenalidomide, 88.3253 Boc-VcN, 88.3246 Boc-AcQ
[17] = T[°C] 88.4473 lenalidomide, 88.445 Boc-VcN, 88.4443 Boc-AcQ
[18] = T[°C] 88.567 lenalidomide, 88.5646 Boc-VcN, 88.5639 Boc-AcQ
[19] = T[°C] 88.6866 lenalidomide, 88.6843 Boc-VcN, 88.6836 Boc-AcQ
[20] = T[°C] 88.8063 lenalidomide, 88.8039 Boc-VcN, 88.8032 Boc-AcQ
[21] = T[°C] 88.9259 lenalidomide, 88.9236 Boc-VcN, 88.9229 Boc-AcQ
[22] = T[°C] 89.0456 lenalidomide, 89.0432 Boc-VcN, 89.0425 Boc-AcQ
[23] = T[°C] 89.1653 lenalidomide, 89.1629 Boc-VcN, 89.1622 Boc-AcQ
[24] = T[°C] 89.2849 lenalidomide, 89.2825 Boc-VcN, 89.2818 Boc-AcQ
[25] = T[°C] 89.4046 lenalidomide, 89.4022 Boc-VcN, 89.4015 Boc-AcQ
[26] = T[°C] 89.5242 lenalidomide, 89.5218 Boc-VcN, 89.5211 Boc-AcQ
[27] = T[°C] 89.6439 lenalidomide, 89.6415 Boc-VcN, 89.6408 Boc-AcQ
[28] = T[°C] 89.7635 lenalidomide, 89.7612 Boc-VcN, 89.7604 Boc-AcQ
[29] = T[°C] 89.8832 lenalidomide, 89.8808 Boc-VcN, 89.8801 Boc-AcQ
[30] = T[°C] 90.0028 lenalidomide, 90.0005 Boc-VcN, 89.9997 Boc-AcQ

T1 sequence (Q96SW2 with tags, fused parts or gaps with the stated changes limits assumed): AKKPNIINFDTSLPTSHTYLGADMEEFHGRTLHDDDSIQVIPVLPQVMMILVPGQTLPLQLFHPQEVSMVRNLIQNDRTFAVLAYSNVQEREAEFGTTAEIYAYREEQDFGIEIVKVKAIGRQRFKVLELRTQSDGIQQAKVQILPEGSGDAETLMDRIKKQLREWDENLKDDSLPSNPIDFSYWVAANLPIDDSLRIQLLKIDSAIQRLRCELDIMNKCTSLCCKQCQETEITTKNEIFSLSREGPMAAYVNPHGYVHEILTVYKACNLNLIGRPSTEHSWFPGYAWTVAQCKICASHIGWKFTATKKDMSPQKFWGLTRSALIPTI

Row | RG of ligand-bound CRBN^midi [1] | Rg, P(r) Analysis from AUTOGNOM [1] | dmax, P(r) analysis [1] | Rg, Guinier analysis [1] | increase of Tm / denaturation temperature of CRBN^midi [2] | melting temperature (Tm) of CRBN^midi in presence of binder [2] | First derivative [2, 3] | First derivative [2, 4] | First derivative [2, 5] | First derivative [2, 6] | First derivative [2, 7] | First derivative [2, 8] | First derivative [2, 9] | First derivative [2, 10] | First derivative [2, 11] | First derivative [2, 12] | First derivative [2, 13] | First derivative [2, 14] | First derivative [2, 15] | First derivative [2, 16] | SMILES | further results
1 | 23.41 Å and 23.4 Å | 22.93 ± 0.03 Å | 137.14 Å | 23.41 ± 0.05 Å | 11.1 °C | 55.6 °C | -0.05947 | -0.05823 | -0.05736 | -0.05707 | -0.05755 | -0.05896 | -0.06138 | -0.06805 | -0.07618 | -0.08482 | -0.09355 | -0.1023 | -0.1109 | -0.1196 | CC(C)[C@H](NC(=O)OC(C)(C)C)C(=O)NC1CC(=O)NC1=O (stereo partly drawn) [Boc-VcN, Tert-butyl ((2S)-1-((2,5-dioxopyrrolidin-3-yl)amino)-3-methyl-1-oxobutan-2-yl)carbamate] | First derivative [2, 17]: -0.1282; First derivative [2, 18]: -0.1368; First derivative [2, 19]: -0.1455; First derivative [2, 20]: -0.1543; First derivative [2, 21]: -0.1632; First derivative [2, 22]: -0.1723; First derivative [2, 23]: -0.1815; First derivative [2, 24]: -0.191; First derivative [2, 25]: -0.2007; First derivative [2, 26]: -0.2106; First derivative [2, 27]: -0.2208; First derivative [2, 28]: -0.2313; First derivative [2, 29]: -0.2421; First derivative [2, 30]: -0.2531
2 | 24.29 Å and 24.3 Å | 24.25 ± 0.04 Å | 146.92 Å | 24.29 ± 0.05 Å | 8.3 °C | 52.8 °C | -0.02853 | -0.0315 | -0.03497 | -0.03881 | -0.04291 | -0.04716 | -0.05142 | -0.05268 | -0.05356 | -0.05436 | -0.05515 | -0.0559 | -0.05659 | -0.05718 | C[C@H](NC(=O)OC(C)(C)C)C(=O)N[C@H]1CCC(=O)NC1=O [Boc-AcQ, tert-butyl ((S)-1-(((S)-2,6-dioxopiperidin-3-yl)amino)-1-oxopropan-2-yl)carbamate] | First derivative [2, 17]: -0.05764; First derivative [2, 18]: -0.05798; First derivative [2, 19]: -0.05817; First derivative [2, 20]: -0.05821; First derivative [2, 21]: -0.0581; First derivative [2, 22]: -0.05783; First derivative [2, 23]: -0.05741; First derivative [2, 24]: -0.05684; First derivative [2, 25]: -0.05611; First derivative [2, 26]: -0.05525; First derivative [2, 27]: -0.05424; First derivative [2, 28]: -0.05311; First derivative [2, 29]: -0.05186; First derivative [2, 30]: -0.0505

Row | SMILES | RG of ligand-bound CRBN^midi [1] | Rg, P(r) Analysis from AUTOGNOM [1] | dmax, P(r) analysis [1] | Rg, Guinier analysis [1] | increase of Tm / denaturation temperature of CRBN^midi [2] | melting temperature (Tm) of CRBN^midi in presence of binder [2] | First derivative [2, 3] | First derivative [2, 4] | First derivative [2, 5] | First derivative [2, 6] | First derivative [2, 7] | First derivative [2, 8] | First derivative [2, 9] | First derivative [2, 10] | First derivative [2, 11] | First derivative [2, 12] | First derivative [2, 13] | First derivative [2, 14] | First derivative [2, 15] | First derivative [2, 16] | further results
3 | N#Cc1ccc(N2CCN(Cc3ccc(COc4cccc5c4CN([C@H]4CCC(=O)NC4=O)C5=O)cc3)CC2)c(F)c1 [mezigdomide, Mezigdomide] | – | 22.45 ± 0.04 Å | 145.02 Å | 22.79 ± 0.06 Å | – | – | – | – | – | – | – | – | – | – | – | – | – | – | – | – | –
